These results are taken from PubChem BioAssay (NCI).

Where “and” joins values, the source holds several entries; their conditions need not be identical. Identical values can stand only once.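 Five compound concentrations were applied to cells in 96-well plates for 48 hours; endpoints were derived by simple linear interpolation of the resulting dose-response curve. At the TGI there is no net growth.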 Where only a bound is given, the exact number is not on record here.

Holding throughout (test): inhibition of tumour cell growth, NCI panel, 48 h
Assay [1] deals with MDA-N.
Assay [2] has as its system OVCAR-8 ovarian.
The test system of assay [3] is HS 578T breast.
Assay [4] relates to HOP-62 NSCLC.
Assay [5] has as its system SNB-75 CNS.
Assay [6] relates to HCT-116 colon.
The test system of assay [7] is CCRF-CEM leukemia.
In assay [8] the test system is UACC-62 melanoma.
Assay [9] has as its system MCF7 breast.
Assay [10] has as its system OVCAR-3 ovarian.

As to `CC1CC2OC(=N)C1(C#N)C2(C#N)C#N` (centres undefined), the TGI in [1] was 33 µM; in assay [2], more than 100 µM; in [3] it was more than 100 µM; in [4] it was 35.2 µM; in [5], 43.1 µM; in [6], 43.3 µM. Moreover, the figures for the TGI in assay [7], in assay [8] and in assay [9] were 44.3 µM, more than 100 µM and more than 100 µM, respectively.

On to `CC(=O)OC1COC(n2c(N)c(C#N)c(-c3ccccc3)c(C#N)c2=S)C(OC(C)=O)C1OC(C)=O` (centres undefined), for which the TGI in assay [1] is 88.2 µM and 88.3 µM; in assay [2] it was > 100 µM and 97.3 µM; in assay [3], more than 100 µM; in [4] it was more than 100 µM; in [5] it was 86.8 µM and > 100 µM; in assay [6] it was more than 100 µM. In addition, the TGI in assay [7] was 67.7 µM and > 100 µM; in assay [8], more than 100 µM; in assay [9] it was more than 100 µM; in [10], > 100 µM and 97.2 µM.

For `COc1ccc(C2CCc3c(cnc4nc(N)nc(N)c34)C2)cc1` (centres undefined), the TGI is more than 100 µM in assay [1]; more than 100 µM in assay [2]; more than 100 µM in assay [3]; 65 µM in [4]; 26.7 µM in [5]; more than 100 µM in [6]. Moreover, the TGI in [8] was more than 100 µM; in assay [9], 45.1 µM; in assay [10] it was more than 100 µM.

As for `Fc1sc2c(c1F)C1CCC2C1` (centres undefined), the TGI is more than 100 µM in assay [1]; more than 100 µM in assay [2]; 69.6 µM in [3]; more than 100 µM in assay [4]; more than 100 µM in assay [5]; more than 100 µM in [6]. In addition, the TGI in assay [8], in [9] and in assay [10] was more than 100 µM throughout.

Take `CC1CN=C(N(C(=O)Nc2ccccc2)C2CCCCC2)S1` (centres undefined): the TGI in assay [1] was 30.1 µM; in [2], 75 µM; in [3], 50 µM; in assay [4], more than 100 µM; in [5] it was 28.9 µM; in [6], 33.1 µM. Moreover, the TGI worked out at 53.7 µM in assay [7], 31.8 µM in assay [9] and 31.8 µM in assay [10].

On to `Oc1[nH]c2ccccc2c1N=NC(=S)NCc1ccccn1`, for which the TGI is 19.9 µM in [1]; 26.7 µM in [2]; 47.7 µM in [3]; 6.87 µM in assay [4]; 6.6 µM in assay [5]; 15.1 µM in [6]. The figures for the TGI in assay [8], in assay [9] and in assay [10] were 2.6 µM, 14.1 µM and 15.3 µM, respectively.

For the compound `COC1OC(=O)C(OC)C(OC)C1OC` (centres undefined), the TGI in assay [1], in assay [2], in assay [3], in assay [4], in assay [5] and in [6] was more than 100 µM throughout. The TGI in [8], in [9] and in assay [10] was more than 100 µM each time.

As for `C(=N\Nc1nnc(-c2nnc(N/N=C/c3ccccc3)o2)o1)/c1ccccc1`, the TGI in assay [1], in [2], in [3], in [4], in assay [6] and in assay [7] was more than 10 µM in each case. Moreover, the TGI in assay [8], in assay [9] and in [10] was more than 10 µM in each case.

As for `CCOC(=O)C1=C(C)N(c2ccc(Cl)cc2)C2(O)C=CC(=O)C3C(=O)N(c4ccccc4)C(=O)C132` (centres undefined), the TGI was found to be 8.92 µM in [1]; 6.32 µM in assay [2]; 12.8 µM in [3]; 4.19 µM in assay [4]; 3.25 µM in [5]; 3.14 µM in assay [6]. The results for the TGI in [8], in [9] and in assay [10] were 3.63 µM, 4.06 µM and 2.75 µM, respectively.

`C/C(=N\Nc1nc2ccccc2n1C)c1ccncn1`: the TGI in assay [1] is more than 100 µM; in assay [2], more than 40.9 µM; in assay [3], more than 100 µM; in assay [4] it was more than 100 µM; in [5], more than 70.9 µM; in assay [6], more than 39.8 µM. In addition, the figures for the TGI in [7] and in assay [9] were more than 52.6 µM and more than 100 µM, respectively.

In the case of `N#Cc1c(NC(=S)Nc2ccccc2)sc2c1CCCC2`, the TGI in assay [1], in [2], in [3], in assay [4], in assay [5] and in [6] was more than 100 µM in each case. In addition, the TGI in assay [8], in assay [9] and in assay [10] was more than 100 µM each time.

As to `Cc1nc2ccccc2nc1N1CCCC1`, the TGI in assay [1], in assay [2], in [3], in assay [4], in [5] and in assay [6] was more than 100 µM throughout. Moreover, the TGI in assay [8] and in assay [9] was more than 100 µM throughout.

As for `O=C(c1cccs1)N(C(=O)N1CCCCC1)c1ccccc1`, the TGI was more than 100 µM in assay [1]; more than 100 µM in assay [2]; more than 100 µM in [3]; 88.7 µM in assay [5]; more than 100 µM in [6]; more than 100 µM in assay [7]. Besides, the TGI in assay [8], in assay [9] and in [10] was more than 100 µM in each case.

As for `CC1=CCC(=O)[C@]2(C)C(CC(=O)O)[C@]3(C)C4=C(C)C(c5ccoc5)C[C@@H]4O[C@@H]3[C@H](O)[C@@H]12` (some centres undefined), the TGI in assay [1], in [2], in [3], in assay [5], in [6] and in assay [7] was more than 100 µM in each case. Moreover, the TGI in [8], in assay [9] and in assay [10] was more than 100 µM each time.

In the case of `Clc1ccc(C2=NNC(c3cccc(Cl)c3)C2)cc1` (centres undefined), the TGI is 59.6 µM in [1]; more than 100 µM in [3]; more than 100 µM in [4]; 96.5 µM in [5]; more than 100 µM in assay [6]; 96.8 µM in [7]. Moreover, the TGI in assay [8], in [9] and in assay [10] was more than 100 µM throughout.
